According to ChEMBL document CHEMBL1201862, “PubChem BioAssay data set” (2004):
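Following 48 hours of exposure in 96-well plates, responses at five concentrations were used to interpolate endpoints linearly. GI50 marks 50% less growth.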 Calls of active or inactive are those of the source. Cut-off read from the data, not from the text of the source: active = GI50 up to about 1.1 µM and inactive = higher.

Assays:
Experiment in all cases: NCI tumour cell line growth inhibition, 48 h
786-0 = tested on: 786-0
A498 = tested on: A498
A549 = tested on: A549
ACHN = tested on: ACHN
BT-549 = tested on: BT-549
CAKI-1 = tested on: CAKI-1
CCRF-CEM = tested on: CCRF-CEM
COLO 205 = tested on: COLO 205
DU-145 = tested on: DU-145
EKVX = tested on: EKVX
HCC 2998 = tested on: HCC 2998
HCT-116 = tested on: HCT-116
HCT-15 = tested on: HCT-15
HL-60 = tested on: HL-60
HOP-62 = tested on: HOP-62
HOP-92 = tested on: HOP-92
HT-29 = tested on: HT-29
Hs-578T = tested on: Hs-578T
IGROV-1 = tested on: IGROV-1
K562 = tested on: K562
KM12 = tested on: KM12
LOX IMVI = tested on: LOX IMVI
M14 = tested on: M14
MCF7 = tested on: MCF7
MDA-MB-231 = tested on: MDA-MB-231
MDA-MB-435 = tested on: MDA-MB-435
MDA-N = tested on: MDA-N
MOLT-4 = tested on: MOLT-4
Malme-3M = tested on: Malme-3M
NCI-H226 = tested on: NCI-H226
NCI-H23 = tested on: NCI-H23
NCI-H460 = tested on: NCI-H460
NCI-H522 = tested on: NCI-H522
NCI/ADR-RES = tested on: NCI/ADR-RES
OVCAR-3 = tested on: OVCAR-3
OVCAR-4 = tested on: OVCAR-4
OVCAR-5 = tested on: OVCAR-5
OVCAR-8 = tested on: OVCAR-8
PC-3 = tested on: PC-3
RPMI-8226 = tested on: RPMI-8226
RXF 393 = tested on: RXF 393
SF-268 = tested on: SF-268
SF-295 = tested on: SF-295
SF-539 = tested on: SF-539
SK-MEL-28 = tested on: SK-MEL-28
SK-MEL-2 = tested on: SK-MEL-2
SK-MEL-5 = tested on: SK-MEL-5
SK-OV-3 = tested on: SK-OV-3
SN12C = tested on: SN12C
SNB-19 = tested on: SNB-19
SNB-75 = tested on: SNB-75
SR = tested on: SR
SW-620 = tested on: SW-620
T47D = tested on: T47D
TK-10 = tested on: TK-10
U-251 = tested on: U-251
UACC-257 = tested on: UACC-257
UACC-62 = tested on: UACC-62
UO-31 = tested on: UO-31

SMILES: CCOC(=O)C1=CN(C(=O)c2ccccc2)CCC1Cc1ccccc1 (centres undefined)
- GI50 (786-0): 28.6 µM (inactive)
- GI50 (A498): 7.87 µM (inactive)
- GI50 (A549): 29.2 µM (inactive)
- GI50 (ACHN): 20.6 µM (inactive)
- GI50 (BT-549): 25.8 µM (inactive)
- GI50 (CAKI-1): 24.4 µM (inactive)
- GI50 (CCRF-CEM): 18 µM (inactive)
- GI50 (COLO 205): 18.9 µM (inactive)
- GI50 (DU-145): 40.9 µM (inactive)
- GI50 (EKVX): 24 µM (inactive)
- GI50 (HCC 2998): 17.6 µM (inactive)
- GI50 (HCT-116): 23.1 µM (inactive)
- GI50 (HCT-15): 21.3 µM
- GI50 (HL-60): 9.04 µM (inactive)
- GI50 (HOP-62): 30 µM (inactive)
- GI50 (HOP-92): 14.7 µM (inactive)
- GI50 (HT-29): 17 µM (inactive)
- GI50 (Hs-578T): 20.5 µM (inactive)
- GI50 (IGROV-1): 27.3 µM (inactive)
- GI50 (K562): 17.6 µM (inactive)
- GI50 (KM12): 26.1 µM (inactive)
- GI50 (LOX IMVI): 18 µM (inactive)
- GI50 (M14): 18.6 µM (inactive)
- GI50 (MCF7): 23.1 µM (inactive)
- GI50 (MDA-MB-231): 17.7 µM (inactive)
- GI50 (MDA-MB-435): 20.4 µM (inactive)
- GI50 (MDA-N): 19.5 µM (inactive)
- GI50 (MOLT-4): 13.5 µM (inactive)
- GI50 (Malme-3M): 25.4 µM (inactive)
- GI50 (NCI-H226): 43.6 µM (inactive)
- GI50 (NCI-H23): 29 µM (inactive)
- GI50 (NCI-H460): 17.5 µM (inactive)
- GI50 (NCI-H522): 16.2 µM (inactive)
- GI50 (NCI/ADR-RES): 20 µM (inactive)
- GI50 (OVCAR-3): 25.9 µM (inactive)
- GI50 (OVCAR-4): 24.5 µM (inactive)
- GI50 (OVCAR-5): 44.6 µM (inactive)
- GI50 (OVCAR-8): 24.4 µM (inactive)
- GI50 (PC-3): 17.7 µM (inactive)
- GI50 (RPMI-8226): 13.5 µM (inactive)
- GI50 (RXF 393): 18.1 µM (inactive)
- GI50 (SF-268): 32.9 µM (inactive)
- GI50 (SF-295): 29.1 µM (inactive)
- GI50 (SF-539): 21.5 µM (inactive)
- GI50 (SK-MEL-28): 22.9 µM (inactive)
- GI50 (SK-MEL-2): 16.8 µM (inactive)
- GI50 (SK-MEL-5): 15 µM (inactive)
- GI50 (SK-OV-3): 31 µM (inactive)
- GI50 (SN12C): 23.1 µM (inactive)
- GI50 (SNB-19): 34.4 µM (inactive)
- GI50 (SNB-75): 18.2 µM (inactive)
- GI50 (SR): 12.5 µM (inactive)
- GI50 (SW-620): 26 µM (inactive)
- GI50 (T47D): 12.5 µM (inactive)
- GI50 (TK-10): 22.9 µM (inactive)
- GI50 (U-251): 21.1 µM (inactive)
- GI50 (UACC-257): 15.8 µM (inactive)
- GI50 (UACC-62): 13.7 µM (inactive)
- GI50 (UO-31): 33 µM (inactive)
